# Assays:
# Melanocortin receptor 3 = Melanocortin receptor 3 (Homo sapiens, UniProt P41968)
# [1] = biological target: Sodium-dependent dopamine transporter (Homo sapiens, UniProt Q01959)
# [2] = biological target: T1, Gamma-aminobutyric acid receptor subunit alpha-1 (Rattus norvegicus, UniProt P62813); format: functional
# [3] = biological target: Glutamate receptor ionotropic, NMDA 1 (Rattus norvegicus, UniProt P35439)
# [4] = biological target: Growth hormone secretagogue receptor type 1 (Homo sapiens, UniProt Q92847)
# Motilin receptor = Motilin receptor (Homo sapiens, UniProt O43193)
# [5] = biological target: T2, Neuropeptide Y receptor type 1 (Homo sapiens, UniProt P25929)
# T2 sequence (P25929 whole entry): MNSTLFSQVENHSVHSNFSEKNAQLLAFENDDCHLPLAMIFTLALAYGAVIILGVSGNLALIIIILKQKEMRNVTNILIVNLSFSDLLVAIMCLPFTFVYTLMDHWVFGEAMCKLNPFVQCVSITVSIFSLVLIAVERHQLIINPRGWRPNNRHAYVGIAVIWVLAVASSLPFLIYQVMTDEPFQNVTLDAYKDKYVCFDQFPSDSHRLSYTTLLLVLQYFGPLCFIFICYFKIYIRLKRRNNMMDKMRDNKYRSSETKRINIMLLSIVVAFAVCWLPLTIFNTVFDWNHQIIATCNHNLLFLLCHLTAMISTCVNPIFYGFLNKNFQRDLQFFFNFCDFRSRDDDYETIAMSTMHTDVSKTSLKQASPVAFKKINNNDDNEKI
# [6] = biological target: cGMP-inhibited 3',5'-cyclic phosphodiesterase 3A (Homo sapiens, UniProt Q14432); format: functional
# [7] = biological target: T3, 5-hydroxytryptamine receptor 3A (Homo sapiens, UniProt P46098); format: functional
# T3 sequence (P46098 whole entry): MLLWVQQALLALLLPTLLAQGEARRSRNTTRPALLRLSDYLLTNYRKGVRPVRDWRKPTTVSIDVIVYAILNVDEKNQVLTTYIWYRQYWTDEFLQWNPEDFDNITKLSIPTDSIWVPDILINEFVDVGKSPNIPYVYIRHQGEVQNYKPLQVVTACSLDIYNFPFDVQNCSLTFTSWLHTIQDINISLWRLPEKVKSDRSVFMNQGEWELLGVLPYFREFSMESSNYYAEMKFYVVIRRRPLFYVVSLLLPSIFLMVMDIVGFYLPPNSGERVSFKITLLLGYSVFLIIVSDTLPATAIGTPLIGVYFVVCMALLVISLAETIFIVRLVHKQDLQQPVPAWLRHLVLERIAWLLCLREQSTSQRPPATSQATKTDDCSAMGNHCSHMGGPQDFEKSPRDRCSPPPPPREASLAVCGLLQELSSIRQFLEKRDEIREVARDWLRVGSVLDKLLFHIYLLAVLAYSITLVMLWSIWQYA
# [8] = biological target: T1, Gamma-aminobutyric acid receptor subunit alpha-1
# [9] = biological target: Kappa-type opioid receptor (Homo sapiens, UniProt P41145)
# [10] = biological target: T4, Alpha-2C adrenergic receptor (Homo sapiens, UniProt P18825); format: functional
# T4 sequence (P18825 whole entry): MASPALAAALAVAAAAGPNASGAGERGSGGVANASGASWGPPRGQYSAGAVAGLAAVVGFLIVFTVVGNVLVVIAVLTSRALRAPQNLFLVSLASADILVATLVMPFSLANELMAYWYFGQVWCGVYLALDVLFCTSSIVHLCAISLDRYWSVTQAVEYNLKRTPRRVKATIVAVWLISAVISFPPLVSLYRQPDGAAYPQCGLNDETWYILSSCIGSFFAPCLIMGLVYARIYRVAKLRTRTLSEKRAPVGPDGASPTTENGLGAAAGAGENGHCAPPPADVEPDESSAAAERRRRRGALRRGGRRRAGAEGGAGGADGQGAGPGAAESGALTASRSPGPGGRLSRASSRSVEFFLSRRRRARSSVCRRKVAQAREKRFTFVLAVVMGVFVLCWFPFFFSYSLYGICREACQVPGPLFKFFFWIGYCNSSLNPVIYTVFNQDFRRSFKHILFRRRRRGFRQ
# [11] = biological target: Beta-1 adrenergic receptor (Homo sapiens, UniProt P08588); format: functional
# Thromboxane A2 receptor = biological target: T5, Thromboxane A2 receptor (Homo sapiens, UniProt P21731)
# T5 sequence (P21731 whole entry): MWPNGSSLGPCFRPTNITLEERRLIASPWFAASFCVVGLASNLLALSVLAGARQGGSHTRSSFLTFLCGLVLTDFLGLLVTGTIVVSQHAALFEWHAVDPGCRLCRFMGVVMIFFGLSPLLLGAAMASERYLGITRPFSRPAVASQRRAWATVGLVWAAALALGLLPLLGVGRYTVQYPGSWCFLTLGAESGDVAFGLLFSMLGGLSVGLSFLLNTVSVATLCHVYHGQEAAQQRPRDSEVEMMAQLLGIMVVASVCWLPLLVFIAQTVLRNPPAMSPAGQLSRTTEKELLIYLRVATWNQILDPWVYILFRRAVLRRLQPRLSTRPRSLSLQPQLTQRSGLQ
# [12] = biological target: 5-hydroxytryptamine receptor 2B (Homo sapiens, UniProt P41595); format: functional, cell-based
# Adenosine receptor A2a = Adenosine receptor A2a (Homo sapiens, UniProt P29274)
# D(3) dopamine receptor = D(3) dopamine receptor (Homo sapiens, UniProt P35462)
# Also: assay procedure not described here.
# Chain of Melanocortin receptor 3 (P41968 whole entry): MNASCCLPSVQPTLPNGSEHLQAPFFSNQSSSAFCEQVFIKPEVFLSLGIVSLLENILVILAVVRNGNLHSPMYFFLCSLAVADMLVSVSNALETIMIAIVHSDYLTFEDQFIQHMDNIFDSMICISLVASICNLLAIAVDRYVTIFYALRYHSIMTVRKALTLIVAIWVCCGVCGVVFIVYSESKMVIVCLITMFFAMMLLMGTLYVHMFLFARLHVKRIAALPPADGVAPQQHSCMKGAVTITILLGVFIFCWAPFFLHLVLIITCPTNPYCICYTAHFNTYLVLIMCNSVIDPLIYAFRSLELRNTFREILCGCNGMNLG
# Chain of Kappa-type opioid receptor (P41145 whole entry): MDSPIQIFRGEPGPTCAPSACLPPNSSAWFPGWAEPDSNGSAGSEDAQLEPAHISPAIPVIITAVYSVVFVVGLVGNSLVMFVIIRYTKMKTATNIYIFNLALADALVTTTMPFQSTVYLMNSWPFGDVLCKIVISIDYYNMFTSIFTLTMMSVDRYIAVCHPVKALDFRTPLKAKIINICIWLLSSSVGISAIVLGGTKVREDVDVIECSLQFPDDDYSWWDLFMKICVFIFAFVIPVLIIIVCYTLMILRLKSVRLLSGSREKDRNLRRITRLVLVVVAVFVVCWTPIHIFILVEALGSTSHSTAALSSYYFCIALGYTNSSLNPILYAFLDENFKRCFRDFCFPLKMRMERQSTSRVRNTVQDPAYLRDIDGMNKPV
# Chain of Motilin receptor (O43193 whole entry): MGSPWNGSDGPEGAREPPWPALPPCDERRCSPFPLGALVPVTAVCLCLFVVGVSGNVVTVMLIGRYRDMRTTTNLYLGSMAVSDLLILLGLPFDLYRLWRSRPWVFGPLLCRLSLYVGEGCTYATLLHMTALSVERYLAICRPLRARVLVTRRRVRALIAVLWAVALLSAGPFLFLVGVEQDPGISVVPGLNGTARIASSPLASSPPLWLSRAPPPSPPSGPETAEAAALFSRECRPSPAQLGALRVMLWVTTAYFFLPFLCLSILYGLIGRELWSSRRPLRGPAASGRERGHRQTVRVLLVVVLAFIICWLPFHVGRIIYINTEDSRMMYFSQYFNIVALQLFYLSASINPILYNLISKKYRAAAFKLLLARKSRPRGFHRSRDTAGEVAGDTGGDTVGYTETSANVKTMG
# Chain of D(3) dopamine receptor (P35462 whole entry): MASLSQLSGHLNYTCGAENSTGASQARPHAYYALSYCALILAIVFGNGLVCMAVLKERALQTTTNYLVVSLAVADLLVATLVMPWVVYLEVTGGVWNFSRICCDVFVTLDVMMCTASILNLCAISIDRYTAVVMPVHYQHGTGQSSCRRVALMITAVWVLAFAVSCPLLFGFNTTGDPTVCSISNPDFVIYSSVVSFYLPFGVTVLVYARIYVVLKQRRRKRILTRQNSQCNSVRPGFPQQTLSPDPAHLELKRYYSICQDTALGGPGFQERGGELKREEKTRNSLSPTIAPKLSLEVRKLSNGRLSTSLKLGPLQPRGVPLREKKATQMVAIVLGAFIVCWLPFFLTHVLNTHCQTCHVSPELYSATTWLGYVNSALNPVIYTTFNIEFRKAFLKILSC
# T1 sequence (P62813 whole entry): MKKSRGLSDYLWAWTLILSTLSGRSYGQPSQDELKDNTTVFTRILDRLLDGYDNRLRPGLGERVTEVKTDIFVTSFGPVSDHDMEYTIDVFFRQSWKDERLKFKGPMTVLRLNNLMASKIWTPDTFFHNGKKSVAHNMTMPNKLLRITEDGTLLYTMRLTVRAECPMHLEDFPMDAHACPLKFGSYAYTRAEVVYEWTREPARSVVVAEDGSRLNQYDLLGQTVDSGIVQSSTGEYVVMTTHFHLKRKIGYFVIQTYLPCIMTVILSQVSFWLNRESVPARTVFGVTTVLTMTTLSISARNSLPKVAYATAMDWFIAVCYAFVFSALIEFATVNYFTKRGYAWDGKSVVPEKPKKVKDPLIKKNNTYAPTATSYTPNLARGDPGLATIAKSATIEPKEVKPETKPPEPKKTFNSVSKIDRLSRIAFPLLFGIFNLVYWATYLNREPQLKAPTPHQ
# Chain of Growth hormone secretagogue receptor type 1 (Q92847 whole entry): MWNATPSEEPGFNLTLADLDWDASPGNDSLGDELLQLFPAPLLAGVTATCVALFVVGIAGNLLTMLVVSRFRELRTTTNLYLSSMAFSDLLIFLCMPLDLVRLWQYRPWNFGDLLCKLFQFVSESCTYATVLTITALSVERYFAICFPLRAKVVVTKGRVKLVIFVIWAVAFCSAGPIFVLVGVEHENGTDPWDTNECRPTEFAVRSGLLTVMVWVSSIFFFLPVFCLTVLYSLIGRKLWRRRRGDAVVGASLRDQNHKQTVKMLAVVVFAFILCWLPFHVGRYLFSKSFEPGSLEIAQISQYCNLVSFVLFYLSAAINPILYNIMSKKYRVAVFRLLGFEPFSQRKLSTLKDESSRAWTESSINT
# Chain of cGMP-inhibited 3',5'-cyclic phosphodiesterase 3A (Q14432 whole entry): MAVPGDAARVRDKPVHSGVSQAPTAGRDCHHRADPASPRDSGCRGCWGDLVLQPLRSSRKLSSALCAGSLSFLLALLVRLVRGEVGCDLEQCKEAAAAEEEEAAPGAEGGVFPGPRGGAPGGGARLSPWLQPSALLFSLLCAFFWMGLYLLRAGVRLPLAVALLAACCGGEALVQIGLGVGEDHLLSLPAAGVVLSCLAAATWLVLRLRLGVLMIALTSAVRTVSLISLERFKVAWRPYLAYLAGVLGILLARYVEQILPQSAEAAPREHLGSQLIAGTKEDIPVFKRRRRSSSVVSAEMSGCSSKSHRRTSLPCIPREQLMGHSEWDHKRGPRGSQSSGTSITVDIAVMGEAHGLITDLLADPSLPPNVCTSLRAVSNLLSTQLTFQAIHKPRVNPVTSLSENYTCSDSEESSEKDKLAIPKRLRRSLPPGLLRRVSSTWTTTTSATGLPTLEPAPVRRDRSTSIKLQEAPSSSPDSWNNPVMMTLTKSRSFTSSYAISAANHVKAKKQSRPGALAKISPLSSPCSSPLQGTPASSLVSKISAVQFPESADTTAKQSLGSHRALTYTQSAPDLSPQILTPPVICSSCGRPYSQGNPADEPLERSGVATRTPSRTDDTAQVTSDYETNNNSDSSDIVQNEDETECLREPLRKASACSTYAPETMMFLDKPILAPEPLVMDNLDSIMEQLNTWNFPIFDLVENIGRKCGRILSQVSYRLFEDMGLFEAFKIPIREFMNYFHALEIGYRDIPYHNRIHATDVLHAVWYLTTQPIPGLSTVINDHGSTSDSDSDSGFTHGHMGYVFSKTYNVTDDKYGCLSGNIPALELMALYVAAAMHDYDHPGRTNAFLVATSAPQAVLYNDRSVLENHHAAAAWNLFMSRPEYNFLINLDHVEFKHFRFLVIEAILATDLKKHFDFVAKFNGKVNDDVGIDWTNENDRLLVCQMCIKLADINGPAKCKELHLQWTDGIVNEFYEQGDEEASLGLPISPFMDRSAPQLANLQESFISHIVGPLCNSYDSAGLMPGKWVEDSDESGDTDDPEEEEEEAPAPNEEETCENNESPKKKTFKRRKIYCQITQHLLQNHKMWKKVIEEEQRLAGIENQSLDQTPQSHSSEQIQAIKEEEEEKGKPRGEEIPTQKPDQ
# Chain of 5-hydroxytryptamine receptor 2B (P41595 whole entry): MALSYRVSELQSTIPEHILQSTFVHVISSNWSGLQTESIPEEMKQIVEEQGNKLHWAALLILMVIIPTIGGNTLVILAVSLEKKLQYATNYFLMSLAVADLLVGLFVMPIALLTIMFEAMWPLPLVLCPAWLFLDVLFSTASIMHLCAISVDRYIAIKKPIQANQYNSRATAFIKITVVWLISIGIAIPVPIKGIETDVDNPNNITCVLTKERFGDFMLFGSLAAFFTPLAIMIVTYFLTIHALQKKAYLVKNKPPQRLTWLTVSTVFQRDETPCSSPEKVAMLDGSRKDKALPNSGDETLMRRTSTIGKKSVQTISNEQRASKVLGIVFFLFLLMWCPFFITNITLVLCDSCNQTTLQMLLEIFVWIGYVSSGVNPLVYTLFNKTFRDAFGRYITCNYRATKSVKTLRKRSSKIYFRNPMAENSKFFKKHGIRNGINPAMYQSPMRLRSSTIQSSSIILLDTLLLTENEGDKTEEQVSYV
# Chain of Sodium-dependent dopamine transporter (Q01959 whole entry): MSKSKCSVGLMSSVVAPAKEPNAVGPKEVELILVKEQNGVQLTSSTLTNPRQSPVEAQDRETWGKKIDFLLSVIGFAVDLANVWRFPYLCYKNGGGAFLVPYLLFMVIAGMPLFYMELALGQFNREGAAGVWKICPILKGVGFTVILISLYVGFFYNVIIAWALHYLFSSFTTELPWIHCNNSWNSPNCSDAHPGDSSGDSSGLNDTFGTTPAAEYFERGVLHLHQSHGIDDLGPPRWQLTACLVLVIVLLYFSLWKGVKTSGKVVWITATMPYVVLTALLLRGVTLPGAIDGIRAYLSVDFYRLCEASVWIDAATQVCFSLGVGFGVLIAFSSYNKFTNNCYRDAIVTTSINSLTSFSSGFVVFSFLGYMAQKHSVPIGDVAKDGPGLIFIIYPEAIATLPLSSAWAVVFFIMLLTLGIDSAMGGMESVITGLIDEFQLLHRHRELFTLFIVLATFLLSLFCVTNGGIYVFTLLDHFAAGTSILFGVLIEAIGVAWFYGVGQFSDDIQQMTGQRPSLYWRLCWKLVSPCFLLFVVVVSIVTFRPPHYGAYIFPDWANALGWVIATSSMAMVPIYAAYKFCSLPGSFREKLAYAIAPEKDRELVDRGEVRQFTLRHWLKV
# Chain of Adenosine receptor A2a (P29274 whole entry): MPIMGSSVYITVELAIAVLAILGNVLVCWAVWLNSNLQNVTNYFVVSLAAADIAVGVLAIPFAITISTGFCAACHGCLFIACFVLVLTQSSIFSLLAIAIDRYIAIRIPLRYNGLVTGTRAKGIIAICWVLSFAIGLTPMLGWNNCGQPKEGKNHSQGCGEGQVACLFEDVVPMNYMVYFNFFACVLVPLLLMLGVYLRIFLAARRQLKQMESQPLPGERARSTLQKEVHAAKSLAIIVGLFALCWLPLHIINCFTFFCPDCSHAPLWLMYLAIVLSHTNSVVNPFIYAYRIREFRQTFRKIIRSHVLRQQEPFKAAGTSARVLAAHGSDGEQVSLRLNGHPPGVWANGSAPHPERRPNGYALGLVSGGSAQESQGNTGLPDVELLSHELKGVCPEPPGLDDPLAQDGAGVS
SMILES,AC50 (Melanocortin receptor 3) [µM],AC50 [1] [µM],AC50 [2] [µM],AC50 [3] [µM],AC50 [4] [µM],AC50 (Motilin receptor) [µM],AC50 [5] [µM],AC50 [6] [µM],AC50 [7] [µM],AC50 [8] [µM],AC50 [9] [µM],AC50 [10] [µM],AC50 [11] [µM],AC50 (Thromboxane A2 receptor) [µM],AC50 [12] [µM],AC50 (Adenosine receptor A2a) [µM],AC50 (D(3) dopamine receptor) [µM]
C[C@]1(COc2ccc(N3CCC(Oc4ccc(OC(F)(F)F)cc4)CC3)cc2)Cn2cc([N+](=O)[O-])nc2O1,> 30,> 10,> 10,> 10,> 30,> 10,> 30,> 30,> 10,> 10,> 10,> 10,> 10,> 30,,,
C[C@]12CC[C@H](O)CC1=CC[C@@H]1[C@@H]2CC[C@]2(C)C(c3cccnc3)=CC[C@@H]12 [ABIRATERONE],> 30,> 30,> 10,> 10,> 30,> 10,> 30,> 30,> 30,> 10,> 10,> 10,> 30,> 30,> 10,> 30,> 30
CC(=O)OCC[N+](C)(C)C [ACETYLCHOLINE],> 30,> 30,> 10,> 10,> 30,> 30,> 30,> 30,> 10,> 10,> 10,> 10,> 30,> 30,> 10,> 30,> 30
O=C(Nc1nc(-c2cc(Cl)cs2)c(N2CCN(C3CCCCC3)CC2)s1)c1cnc(N2CCC(C(=O)O)CC2)c(Cl)c1 [AVATROMBOPAG],> 10,> 10,> 10,> 10,> 10,> 10,> 10,> 10,> 10,> 10,> 10,> 10,> 10,> 10,,> 10,> 10
CN(C)C(=O)Oc1cc(OC(=O)N(C)C)cc(C(O)CNC(C)(C)C)c1 (configuration not stated) [BAMBUTEROL],> 30,> 30,,,> 30,> 30,> 30,,,,,,> 30,> 30,,> 30,
C[C@H]1C[C@H]2[C@@H]3CCC4=CC(=O)C=C[C@]4(C)[C@@]3(Cl)[C@@H](O)C[C@]2(C)[C@@]1(O)C(=O)CO [BECLOMETHASONE],> 30,> 10,> 10,> 10,> 30,> 10,> 30,> 30,> 30,> 10,> 10,> 10,> 10,> 30,,> 30,> 10
CO[C@@]1(NC(=O)CSCC#N)C(=O)N2C(C(=O)O)=C(CSc3nnnn3C)CS[C@@H]21 [CEFMETAZOLE],,,> 30,> 30,,,,> 30,> 30,,> 30,> 30,,,> 30,,> 30
CO/N=C(\C(=O)N[C@@H]1C(=O)N2C(C(=O)[O-])=C(C[n+]3cccc4c3CCC4)CS[C@H]12)c1csc(N)n1 [CEFPIROME],,,> 30,> 30,,,,> 30,> 30,> 30,> 30,> 30,,,> 30,,> 30
NS(=O)(=O)c1cc(C2(O)NC(=O)c3ccccc32)ccc1Cl (configuration not stated) [CHLORTHALIDONE],> 10,> 10,> 10,> 10,> 10,> 10,> 10,> 30,> 30,> 10,> 10,> 10,> 10,> 10,> 10,> 10,> 30
CC[C@H]1OC(=O)[C@H](C)[C@@H](O[C@H]2C[C@@](C)(OC)[C@@H](O)[C@H](C)O2)[C@H](C)[C@@H](O[C@@H]2O[C@H](C)C[C@H](N(C)C)[C@H]2O)[C@](C)(OC)C[C@@H](C)C(=O)[C@H](C)[C@@H](O)[C@]1(C)O [CLARITHROMYCIN],> 30,> 30,,,> 30,> 30,> 30,> 30,,,,> 30,> 30,> 30,> 30,> 30,
Oc1c(I)cc(Cl)c2cccnc12 [CLIOQUINOL],,,> 30,13,,,,> 30,> 30,> 30,> 30,> 30,,,> 30,,> 30
COc1ccc2c(c1)[C@]13CCCC[C@@H]1[C@H](C2)N(C)CC3 [DEXTROMETHORPHAN],> 30,> 10,> 10,,> 30,> 10,> 30,> 30,> 10,> 10,,11,> 10,> 30,> 10,> 30,> 30
c1ccc2c(CC3=NCCN3)cccc2c1 [NAPHAZOLINE],,,,,,,,,,,,0.33,,,,,
CNCCCC1c2ccccc2C=Cc2ccccc21 [PROTRIPTYLINE],> 10,17.8,> 10,> 10,> 10,> 10,> 10,> 30,> 30,> 10,,,,> 10,> 10,> 10,0.85
O=C(CCCN1CCC2(CC1)C(=O)NCN2c1ccccc1)c1ccc(F)cc1 [SPIPERONE],> 30,7.2,> 30,> 30,> 10,> 30,> 30,> 30,> 30,> 30,,0.369,2.8,> 30,5.21,> 30,

# Reference: ChEMBL document CHEMBL5291721, “A preclinical secondary pharmacology resource illuminates target-adverse drug reaction associations of marketed drugs” (Nat Commun, 2023)
